Measurements as given in paper PMC9250534, “Synthesis and direct assay of large macrocycle diversities by combinatorial late-stage modification at picomole scale” (Nature Communications, 2022).
Numbered stars: 1 amine (or outer) side, 2 acyl side, 3 side chain; on linkers, the order of the positions; unused ones are H or OH. Bridge positions count the residues as written; N and C are the ends. Peptide text beside a SMILES is read from it. * marks the point of attachment. 2Thenoyl(5-Cl) = O=C(c1ccc(Cl)s1)*; Cysteamide = C(CS[*:3])N[*:1]

These compounds were tested against T1, thrombin (Homo sapiens, UniProt P00734) (assay: Thrombin inhibition screen of crude macrocycle reactions (residual thrombin activity, fluorogenic substrate Z-Gly-Gly-Arg-AMC)). Settings: 10 µM macrocycle concentration; crude reactions, Library 1a-l; scaffold AA1-AA2-AA3 combined with 1-16 or '-'.
T1 construct: consists of two polypeptide chains of 36 (light chain) and 259 amino acid
Type: biochemical
Protocol: As a proof-of-concept, we screened the macrocycle library for inhibitors against thrombin, which is the central blood coagulation protease and an important therapeutic target. We conducted the screen for thrombin-inhibiting macrocycles in 384-well reaction plates. Briefly, each well contained a unique macrocycle (10 μM), 5 μL of thrombin (2 nM final conc.), and subsequently, 5 µL of a fluorogenic substrate to measure the residual thrombin activity and the extent of protease inhibition.
The assays were performed in 384-well plates using Tris buffer at pH 7.4 (100 mM Tris-Cl, 150 mM NaCl, 10 mM MgCl2, 1 mM CaCl2, 0.1% w/v BSA, 0.01% v/v Triton-X100, and 0.6% v/v DMSO) using thrombin at a final concentration of 2 nM and the fluorogenic substrate Z-Gly-Gly-Arg-AMC at a final concentration of 50 μM. Thrombin (5 μL, 6 nM) in the Tris-Cl buffer described above was added to each peptide using a BioTek MultiFlo microplate dispenser, and incubated for 10 min at room temperature. […] Data was collected and exported using the Tecan Infinite M200 Pro instrument software. […] For the negative controls (20 wells containing DMSO but no macrocycle), an average slope was calculated. The percent of thrombin inhibition was calculated by dividing the slopes and multiplying the results by 100.

Row | Structure (SMILES) | percent residual thrombin activity
1 | O=C1CCSSCCNC(=O)[C@H](Cc2c[nH]c3ccccc23)NC(=O)[C@H](CCCCNC(=O)c2ccc(Cl)s2)NC(=O)c2cccc(c2)CN1 [B5-D1-W/14] | 107.115%
2 | CC[C@H](C)[C@@H]1NC(=O)[C@H](CCCNC(=O)c2cnccn2)NC(=O)c2cccc(c2)CNC(=O)CCSSCCNC1=O [B5-D2-I/2] | 109.077%
3 | CC[C@H](C)[C@@H]1NC(=O)[C@H](CCCNC(=O)c2cc(C)on2)NC(=O)c2cccc(c2)CNC(=O)CCSSCCNC1=O [B5-D2-I/3] | 102.465%
4 | CC[C@H](C)[C@@H]1NC(=O)[C@H](CCCNC(=O)c2c[nH]c(=O)[nH]c2=O)NC(=O)c2cccc(c2)CNC(=O)CCSSCCNC1=O [B5-D2-I/11] | 108.374%
5 | CC[C@H](C)[C@@H]1NC(=O)[C@H](CCCNC(=O)Cc2c[nH]c3ccccc23)NC(=O)c2cccc(c2)CNC(=O)CCSSCCNC1=O [B5-D2-I/12] | 103.906%
6 | CC[C@H](C)[C@@H]1NC(=O)[C@H](CCCNC(=O)COc2ccccc2)NC(=O)c2cccc(c2)CNC(=O)CCSSCCNC1=O [B5-D2-I/13] | 106.564%
7 | CC[C@H](C)[C@@H]1NC(=O)[C@H](CCCNC(=O)c2snnc2C)NC(=O)c2cccc(c2)CNC(=O)CCSSCCNC1=O [B5-D2-I/15] | 106.982%
8 | CC[C@H](C)[C@@H]1NC(=O)[C@H](CCCNC(=O)c2ccco2)NC(=O)c2cccc(c2)CNC(=O)CCSSCCNC1=O [B5-D2-I/16] | 105.125%
9 | COc1ccc(C(=O)NCCCC[C@@H]2NC(=O)[C@H](CO)NC(=O)c3cccc(c3)CNC(=O)CCSSCCNC2=O)cn1 [B5-S-D1/10] | 101.444%
10 | CC(C)CC(=O)NCCCC[C@@H]1NC(=O)C2(CC2)CNC(=O)CCSSCCNC(=O)[C@H](CCC(N)=O)NC1=O [B6-D1-Q/8] | 101.194%
11 | NC(=O)CC[C@@H]1NC(=O)[C@H](CCCCNC(=O)c2c[nH]c(=O)[nH]c2=O)NC(=O)C2(CC2)CNC(=O)CCSSCCNC1=O [B6-D1-Q/11] | 105.488%
12 | NC(=O)CC[C@@H]1NC(=O)[C@H](CCCCNC(=O)c2ccco2)NC(=O)C2(CC2)CNC(=O)CCSSCCNC1=O [B6-D1-Q/16] | 101.173%
13 | NCCCC[C@@H]1NC(=O)C2(CC2)CNC(=O)CCSSCCNC(=O)[C@H](CCC(N)=O)NC1=O [B6-D1-Q/-] | 103.82%
14 | CC(C)C[C@@H]1NC(=O)[C@H](CCCNC(=O)c2c[nH]c(=O)cn2)NC(=O)C2(CC2)CNC(=O)CCSSCCNC1=O [B6-D2-L/9] | 109.823%
15 | CC(C)C[C@@H]1NC(=O)[C@H](CCCNC(=O)COc2ccccc2)NC(=O)C2(CC2)CNC(=O)CCSSCCNC1=O [B6-D2-L/13] | 118.291%
16 | CC(C)[C@@H]1NC(=O)[C@H](CCCNC(=O)c2ccccc2)NC(=O)C2(CC2)CNC(=O)CCSSCCNC1=O [B6-D2-V/1] | 108.209%
17 | CC(C)[C@@H]1NC(=O)[C@H](CCCN)NC(=O)C2(CC2)CNC(=O)CCSSCCNC1=O [B6-D2-V/-] | 112.468%
18 | O=C1CCSSCCNC(=O)[C@H](Cc2c[nH]c3ccccc23)NC(=O)[C@H](CCCNC(=O)c2ccccc2)NC(=O)C2(CC2)CN1 [B6-D2-W/1] | 97.8863%
19 | O=C1CCSSCCNC(=O)[C@H](Cc2c[nH]c3ccccc23)NC(=O)[C@H](CCCNC(=O)c2cnccn2)NC(=O)C2(CC2)CN1 [B6-D2-W/2] | 95.9188%
20 | COc1ccc(C(=O)NCCC[C@@H]2NC(=O)C3(CC3)CNC(=O)CCSSCCNC(=O)[C@H](Cc3c[nH]c4ccccc34)NC2=O)cn1 [B6-D2-W/10] | 93.1158%

Row | Structure (SMILES) | percent residual thrombin activity
21 | O=C1CCSSCCNC(=O)[C@H](Cc2c[nH]c3ccccc23)NC(=O)[C@H](CCCNC(=O)c2c[nH]c(=O)[nH]c2=O)NC(=O)C2(CC2)CN1 [B6-D2-W/11] | 94.9215%
22 | O=C1CCSSCCNC(=O)[C@H](Cc2c[nH]c3ccccc23)NC(=O)[C@H](CCCNC(=O)Cc2c[nH]c3ccccc23)NC(=O)C2(CC2)CN1 [B6-D2-W/12] | 93.2541%
23 | O=C1CCSSCCNC(=O)[C@H](Cc2c[nH]c3ccccc23)NC(=O)[C@H](CCCNC(=O)COc2ccccc2)NC(=O)C2(CC2)CN1 [B6-D2-W/13] | 95.6589%
24 | CC(C)CC(=O)NCCC[C@@H]1NC(=O)C2(CC2)CNC(=O)CCSSCCNC(=O)[C@H](Cc2ccc(O)cc2)NC1=O [B6-D2-Y/8] | 103.129%
25 | O=C1CCSSCCNC(=O)[C@H](Cc2ccc(O)cc2)NC(=O)[C@H](CCCNC(=O)c2c[nH]c(=O)cn2)NC(=O)C2(CC2)CN1 [B6-D2-Y/9] | 103.418%
26 | COc1ccc(C(=O)NCCC[C@@H]2NC(=O)C3(CC3)CNC(=O)CCSSCCNC(=O)[C@H](Cc3ccc(O)cc3)NC2=O)cn1 [B6-D2-Y/10] | 102.307%
27 | O=C1CCSSCCNC(=O)[C@H](Cc2ccc(O)cc2)NC(=O)[C@H](CCCNC(=O)c2c[nH]c(=O)[nH]c2=O)NC(=O)C2(CC2)CN1 [B6-D2-Y/11] | 102.523%
28 | O=C1CCSSCCNC(=O)[C@H](Cc2ccc(O)cc2)NC(=O)[C@H](CCCNC(=O)Cc2c[nH]c3ccccc23)NC(=O)C2(CC2)CN1 [B6-D2-Y/12] | 103.867%
29 | O=C1CCSSCCNC(=O)[C@H](Cc2ccc(O)cc2)NC(=O)[C@H](CCCNC(=O)COc2ccccc2)NC(=O)C2(CC2)CN1 [B6-D2-Y/13] | 105.408%
30 | O=C1CCSSCCNC(=O)[C@H](Cc2ccc(O)cc2)NC(=O)[C@H](CCCNC(=O)c2ccc(Cl)s2)NC(=O)C2(CC2)CN1 [B6-D2-Y/14] | 95.7216%
31 | O=C1CCSSCCNC(=O)[C@H](CCCCNC(=O)c2ccccc2)NC(=O)[C@H](Cc2ccc(O)cc2)NC(=O)C2(CC2)CN1 [B6-Y-D1/1] | 104.596%
32 | O=C1CCSSCCNC(=O)[C@H](CCCCNC(=O)c2cnccn2)NC(=O)[C@H](Cc2ccc(O)cc2)NC(=O)C2(CC2)CN1 [B6-Y-D1/2] | 106.813%
33 | COc1ccc(C(=O)NCCCC[C@@H]2NC(=O)[C@H](Cc3ccc(O)cc3)NC(=O)C3(CC3)CNC(=O)CCSSCCNC2=O)cn1 [B6-Y-D1/10] | 104.034%
34 | O=C1CCSSCCNC(=O)[C@H](CCCCNC(=O)c2c[nH]c(=O)[nH]c2=O)NC(=O)[C@H](Cc2ccc(O)cc2)NC(=O)C2(CC2)CN1 [B6-Y-D1/11] | 105.574%
35 | O=C1CCSSCCNC(=O)[C@H](CCCCNC(=O)Cc2c[nH]c3ccccc23)NC(=O)[C@H](Cc2ccc(O)cc2)NC(=O)C2(CC2)CN1 [B6-Y-D1/12] | 101.278%
36 | O=C1CCSSCCNC(=O)[C@H](CCCCNC(=O)COc2ccccc2)NC(=O)[C@H](Cc2ccc(O)cc2)NC(=O)C2(CC2)CN1 [B6-Y-D1/13] | 106.992%
37 | Cc1nnsc1C(=O)NCCCC[C@@H]1NC(=O)[C@H](Cc2ccc(O)cc2)NC(=O)C2(CC2)CNC(=O)CCSSCCNC1=O [B6-Y-D1/15] | 105.617%
38 | O=C1CCSSCCNC(=O)[C@H](CCCCNC(=O)c2ccco2)NC(=O)[C@H](Cc2ccc(O)cc2)NC(=O)C2(CC2)CN1 [B6-Y-D1/16] | 103.228%
39 | NCCCC[C@@H]1NC(=O)[C@H](Cc2ccc(O)cc2)NC(=O)C2(CC2)CNC(=O)CCSSCCNC1=O [B6-Y-D1/-] | 104.679%

Same assay, conditions: 10 µM macrocycle concentration; macrocycles containing acid 14; crude reaction; original screen

Row | Structure (SMILES) | % thrombin activity, Original screen
40 | O=C1CNC(=O)[C@@H]2CCCN2C(=O)[C@@H](NC(=O)c2ccc(Cl)s2)CSSCCNC(=O)[C@H](Cc2ccccc2)N1 [C B1 G F] ({2Thenoyl(5-Cl)}-CPGF-Cysteamide; disulfide 1-C) | 91.5%
41 | O=C1CNC(=O)[C@H](Cc2ccc(O)cc2)NC(=O)[C@@H]2CCCN2C(=O)[C@@H](NC(=O)c2ccc(Cl)s2)CSSCCN1 [C B1 Y G] ({2Thenoyl(5-Cl)}-CPYG-Cysteamide; disulfide 1-C) | 98.5%
42 | CC[C@H](C)[C@@H]1NC(=O)CNC(=O)CCNC(=O)[C@@H](NC(=O)c2ccc(Cl)s2)CSSCCNC1=O [C B2 G I] | 110.0%
43 | O=C1CCNC(=O)[C@@H](NC(=O)c2ccc(Cl)s2)CSSCCNC(=O)[C@@H](CO)NC(=O)CN1 [C B2 G s] | 112.4%
44 | O=C1CNC(=O)c2ccc(cc2)CNC(=O)[C@@H](NC(=O)c2ccc(Cl)s2)CSSCCNC(=O)[C@H](Cc2cnc[nH]2)N1 [C B3 G H] | 103.1%
45 | CC[C@H](C)[C@@H]1NC(=O)c2ccc(cc2)CNC(=O)[C@@H](NC(=O)c2ccc(Cl)s2)CSSCCNC(=O)CNC1=O [C B3 I G] | 106.0%
46 | CC(C)C1NC(=O)C2CCCN(C2)C(=O)C(NC(=O)c2ccc(Cl)s2)CSSCCNC(=O)CNC1=O (stereo not shown) [C B4 V G] | 107.3%
47 | CC(C)C[C@@H]1NC(=O)C2(CC2)CNC(=O)CNC(=O)[C@@H](NC(=O)c2ccc(Cl)s2)CSSCCNC1=O [C G B6 L] | 109.3%

Same assay, conditions: 10 µM macrocycle concentration; macrocycles containing acid 14; crude reaction; replicate reaction and screen

Row | Structure (SMILES) | % thrombin activity, Repeat screen
48 | O=C1CNC(=O)[C@@H]2CCCN2C(=O)[C@@H](NC(=O)c2ccc(Cl)s2)CSSCCNC(=O)[C@H](Cc2ccccc2)N1 [C B1 G F] ({2Thenoyl(5-Cl)}-CPGF-Cysteamide; disulfide 1-C) | 96.1%
49 | O=C1CNC(=O)[C@H](Cc2ccc(O)cc2)NC(=O)[C@@H]2CCCN2C(=O)[C@@H](NC(=O)c2ccc(Cl)s2)CSSCCN1 [C B1 Y G] ({2Thenoyl(5-Cl)}-CPYG-Cysteamide; disulfide 1-C) | 102.3%
50 | CC[C@H](C)[C@@H]1NC(=O)CNC(=O)CCNC(=O)[C@@H](NC(=O)c2ccc(Cl)s2)CSSCCNC1=O [C B2 G I] | 114.7%
51 | O=C1CCNC(=O)[C@@H](NC(=O)c2ccc(Cl)s2)CSSCCNC(=O)[C@@H](CO)NC(=O)CN1 [C B2 G s] | 112.3%
52 | O=C1CNC(=O)c2ccc(cc2)CNC(=O)[C@@H](NC(=O)c2ccc(Cl)s2)CSSCCNC(=O)[C@H](Cc2cnc[nH]2)N1 [C B3 G H] | 116.7%
53 | CC[C@H](C)[C@@H]1NC(=O)c2ccc(cc2)CNC(=O)[C@@H](NC(=O)c2ccc(Cl)s2)CSSCCNC(=O)CNC1=O [C B3 I G] | 113.6%
54 | CC(C)C1NC(=O)C2CCCN(C2)C(=O)C(NC(=O)c2ccc(Cl)s2)CSSCCNC(=O)CNC1=O (stereo not shown) [C B4 V G] | 115.5%
55 | CC(C)C[C@@H]1NC(=O)C2(CC2)CNC(=O)CNC(=O)[C@@H](NC(=O)c2ccc(Cl)s2)CSSCCNC1=O [C G B6 L] | 114.8%
